#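 Method: 48-hour compound exposure of cells in 96-well plates, five concentrations, linear interpolation of endpoints. GI50 marks 50% less growth.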 Calls of active or inactive are those of the source. No stated cut-off is given here; in the data, active = GI50 up to about 1.1 µM and inactive = higher.
# Columns and labels:
# Experiment in all cases: NCI-60 cell line screen, 48 h
# [1] = test system: Malme-3M
# [2] = test system: A498
# [3] = test system: SK-MEL-2
# [4] = test system: HT-29
# [5] = test system: IGROV-1
# [6] = test system: 786-0
# [7] = test system: SNB-75
# [8] = test system: RXF 393
# [9] = test system: MDA-N
# [10] = test system: MCF7
# [11] = test system: HCC 2998
# [12] = test system: SW-620
# [13] = test system: CCRF-CEM
# [14] = test system: OVCAR-3
# [15] = test system: HCT-116
# [16] = test system: T47D
# [17] = test system: ACHN
# [18] = test system: Hs-578T
# [19] = test system: OVCAR-8
# [20] = test system: HCT-15
SMILES,GI50 [1],GI50 [2],GI50 [3],GI50 [4],GI50 [5],GI50 [6],GI50 [7],GI50 [8],GI50 [9],GI50 [10],GI50 [11],GI50 [12],GI50 [13],GI50 [14],GI50 [15],GI50 [16],GI50 [17],GI50 [18],GI50 [19],GI50 [20] [µM]
c1ccc(C[N+]23CN4CN(CN(C4)C2)C3)cc1,57.7 µM (inactive),> 100 µM (inactive),17 µM (inactive),33.2 µM (inactive),52.2 µM (inactive),21.1 µM (inactive),45.6 µM (inactive),18 µM (inactive),94.4 µM (inactive),30.1 µM (inactive),20.4 µM (inactive),24.1 µM (inactive),11.7 µM (inactive),> 100 µM (inactive),27.7 µM (inactive),28.4 µM (inactive),29.3 µM (inactive),> 100 µM (inactive),30.1 µM (inactive),31.4
CCOC(=O)CCC(NC(=O)c1ccc(Oc2nc3ccccc3nc2-c2ccccc2)cc1)C(=O)OCC (stereo not given),12.7 µM (inactive),> 50.1 µM (inactive),31.5 µM (inactive),2.48 µM (inactive),35.4 µM (inactive),3.67 µM (inactive),8.85 µM (inactive),20.1 µM (inactive),45 µM (inactive),> 100 µM (inactive),> 100 µM (inactive),> 100 µM (inactive),> 100 µM (inactive),15.4 µM (inactive),12.9 µM (inactive),> 29.8 µM (inactive),7.35 µM (inactive),7.08 µM (inactive),3.55 µM (inactive),> 100
COC1/C=C\C=C(/C)C(=O)NC2=CC(=O)C(N)=C(CC(C)CC(OC)C(O)C(C)C=C(C)C1OC(N)=O)C2=O (stereo not given),0.0231 µM (active),19.1 µM (inactive),< 0.01 µM (active),< 0.01 µM (active),0.0318 µM (active),0.368 µM (active),< 0.0137 µM (active),2.93 µM (inactive),< 0.0171 µM (active),0.0416 µM (active),0.0268 µM (active),< 0.0133 µM (active),0.178 µM (active),0.0681 µM (active),0.0233 µM (active),0.653 µM (active),0.0935 µM (active),< 0.01 µM (active),< 0.0203 µM (active),0.333
O=C1CSC(=S)N1c1ccc(F)cc1F,66.5 µM (inactive),67.9 µM (inactive),61.2 µM (inactive),90.8 µM (inactive),51.6 µM (inactive),> 100 µM (inactive),42.3 µM (inactive),72.9 µM (inactive),36.3 µM (inactive),21.7 µM (inactive),34.8 µM (inactive),> 100 µM (inactive),25.6 µM (inactive),41.3 µM (inactive),> 100 µM (inactive),30 µM (inactive),53.7 µM (inactive),41.3 µM (inactive),58.3 µM (inactive),36.2

# — ChEMBL document CHEMBL1201862, “PubChem BioAssay data set” (2004)
